According to the supplement of paper PMC10307832:

Key:
Experiment in all cases: relative viability (nuclei count vs DMSO), 5 days (fraction); higher = more cells survive
[1] = compound: C=CC(=O)N1CCC[C@@H](n2nc(-c3ccc(Oc4ccccc4)cc3)c3c(N)ncnc32)C1 [Ibrutinib] + CS(=O)(=O)N1CCN(Cc2cc3nc(-c4cccc5[nH]ncc45)nc(N4CCOCC4)c3s2)CC1 [Pictilisib] (partner 1 µM)
In short: (§1)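 A single step with final 0.05% Triton X-100, 1% formaldehyde and 1 ug/ml Hoechst fixed the cells and stained nuclei 5 days after treatment. Lung cancer cell lines in 1536-well plates had been treated by pin tool the day after seeding with one drug alone or a fixed anchor-drug dose plus five library-drug doses (not always all listed) in √10 steps, and nuclei were counted on 4× images. Relative viability is the ratio of nuclei in treated wells to nuclei in vehicle wells, taken as the median of duplicate plates.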

[2] = compound: C=CC(=O)N1CCC[C@@H](n2nc(-c3ccc(Oc4ccccc4)cc3)c3c(N)ncnc32)C1 [Ibrutinib] + Nc1ncn([C@H]2C[C@H](O)[C@@H](CO)O2)c(=O)n1 [Decitabine] (partner 2 µM)
In short: as §1

[3] = compound: C=CC(=O)Nc1cc(-n2c(=O)ccc3cnc4ccc(-c5ccc(NS(C)(=O)=O)cc5)cc4c32)ccc1C [BMX-IN-1] + CS(=O)(=O)N1CCN(Cc2cc3nc(-c4cccc5[nH]ncc45)nc(N4CCOCC4)c3s2)CC1 [Pictilisib] (partner 1 µM)
In short: as §1

[4] = compound: C=CCc1cccc(/C=N/NC(=O)CN2CCN(Cc3ccccc3)CC2)c1O [PAC-1] + CS(=O)(=O)N1CCN(Cc2cc3nc(-c4cccc5[nH]ncc45)nc(N4CCOCC4)c3s2)CC1 [Pictilisib] (partner 1 µM)
In short: as §1

| Cell Line | relative viability ([1]; first compound 0.005 µM) | relative viability ([1]; first compound 0.01581 µM) | relative viability ([1]; first compound 0.05 µM) | relative viability ([1]; first compound 0.1581 µM) | relative viability ([1]; first compound 0.5 µM) | relative viability ([2]; first compound 0.005 µM) | relative viability ([2]; first compound 0.01581 µM) | relative viability ([2]; first compound 0.05 µM) | relative viability ([2]; first compound 0.1581 µM) | relative viability ([2]; first compound 0.5 µM) | relative viability ([3]; first compound 0.02 µM) | relative viability ([3]; first compound 0.2 µM) | relative viability ([3]; first compound 0.6325 µM) | relative viability ([3]; first compound 2 µM) | relative viability ([4]; first compound 0.02 µM) | relative viability ([4]; first compound 0.06325 µM) | relative viability ([4]; first compound 0.2 µM) | relative viability ([4]; first compound 2 µM) |
| --- | --- | --- | --- | --- | --- | --- | --- | --- | --- | --- | --- | --- | --- | --- | --- | --- | --- | --- |
| NCI-H1395 | 0.611 | 0.555 | 0.538 | 0.562 | 0.655 | 0.777 | 0.688 | 0.811 | 0.697 | 0.75 | 0.82 | 1.02 | 0.701 | 0.61 | 0.603 | 0.677 | 0.61 | 0.602 |
| NCI-H650 | – | 0.883 | – | 0.973 | 0.678 | 0.384 | 0.325 | 0.335 | 0.37 | 0.319 | 1.02 | 0.826 | 0.872 | 0.772 | 1.07 | 0.951 | 0.86 | 0.874 |
| NCI-H1437 | 0.346 | 0.413 | 0.428 | 0.359 | 0.443 | 0.59 | 0.559 | 0.507 | 0.609 | 0.53 | 0.455 | 0.391 | 0.425 | 0.462 | 0.495 | 0.474 | 0.415 | 0.391 |
| NCI-H2347 | 0.648 | 0.672 | 0.587 | 0.299 | 0.535 | 0.65 | 0.609 | 0.658 | 0.575 | 0.535 | 0.748 | 0.576 | 0.613 | 0.748 | 0.51 | 0.723 | 0.604 | 0.591 |
| NCI-H520 | 0.25 | 0.262 | 0.258 | 0.183 | 0.254 | 0.447 | 0.512 | 0.497 | 0.606 | 0.498 | 0.376 | 0.299 | 0.304 | 0.278 | 0.266 | 0.303 | 0.256 | 0.35 |
| COR-L23 | 0.626 | 0.742 | 0.885 | 0.925 | 0.729 | 0.428 | 0.433 | 0.473 | 0.461 | 0.525 | 1.1 | 1.3 | 0.76 | 0.855 | 0.853 | 0.848 | 0.644 | 0.855 |
| A549 | 0.396 | 0.416 | 0.521 | 0.586 | 0.499 | 0.249 | 0.243 | 0.311 | 0.225 | 0.186 | 0.69 | 0.757 | 0.56 | 0.517 | 0.483 | 0.511 | 0.509 | 0.487 |
